A melting point compilation (Tetko et al.; mined from patent text by program, amines drawn as free bases though some values may be those of a salt)

Structure (SMILES) | melting point [°C]
N=C(N)c1ccc(-c2ccc(N3CCCN(CC(=O)O)C3=O)cc2)cc1 | > 200
c1ccc2c(c1)C[C@@H]1c3ccccc3N[C@H]21 (relative stereo) | 107
CCCCN1CCn2c1nc(C(=O)NCc1ccc(F)cc1C(=O)NC)c(O)c2=O | 175 to 177
COc1cc(C(=O)CC(=O)c2ccc(O)cc2O)cc(OC)c1OC | 284 to 286
CCCCNS(=O)(=O)c1ccc(S(N)(=O)=O)cc1 | 164 to 167
CC1(C)CNC(=O)C(=O)N1c1cc(F)cc2ccoc12 | 162 to 165
CS(=O)(=O)c1ccc(-n2nc(CNC(=O)Nc3ccccc3)cc2-c2ccccc2)cc1 | 95.7 to 104
COc1cc([N+](=O)[O-])ccc1S(=O)(=O)n1c(=O)n(C2CCCCCC2)c2cc(Cl)ccc21 | 193
CC(C)C(O)CN1N=C(c2ccc(Cl)cc2)CCC1=O (stereo not given) | 90 to 92
COc1ccc(Cc2cc(O)ccc2OC)cn1 | 121 to 124
CCCCNc1c(C#N)cnc2cc(F)c(OC)cc12 | 155 to 156
CC1(C)OC(C=Cc2ccc(C(F)(F)F)cc2)=CC1=O | 94 to 95
COc1ccnc(C(C)Sc2nc3cc4c(cc3[nH]2)OC(F)(F)O4)c1 (stereo not given) | 173 to 175
CCOC(=O)c1cc(-n2c(=O)[nH]c3c(c2=O)CCCC3)ccc1Cl | 196 to 198
COc1ccc(CNC(=O)c2cc([N+](=O)[O-])ccc2N[C@@H](CO)CCSC)cc1OC | 150 to 152
Nn1c(-c2ccccc2)nc2cc(C(F)(F)F)ccc21 | 200 to 203
CCN(CC)CCOc1ccc2cc3ccc(OCCN(CC)CC)c(CO)c3nc2c1CO | 95 to 96
COc1ccc(-c2c3nn(-c4ccc(OC)cc4)c(=O)c-3c[nH]c2C)cc1 | 274 to 282
CN1C(=O)CC[C@]2(C)c3ccc(-c4ccc5c(c4)CCC5O)cc3CC[C@@H]12 (stereo not given in full) | 185 to 190
COC(C)CC(=O)NC1CCC(CCN2CCN(c3nccc4c3CCO4)CC2)CC1 (stereo not given) | 167
O=C(O)[C@@H]1CCCC[C@H]1C(=O)CS (relative stereo) | 112 to 117
CC(C)(C)CC(C)(C)c1cc(-c2cc(C(C)(C)CC(C)(C)C)cc(-n3nc4ccccc4n3)c2O)c(O)c(-n2nc3ccccc3n2)c1 | 209 to 211
c1ccc2c(c1)Nc1ccccc1-n1ccnc1-2 | 215 to 217
c1cc(OCCCNCC2COc3cc4c(cc3O2)OCO4)c2cccnc2c1 (stereo not given) | 140 to 145
CCCCc1ncc(CO)c(NCc2ccc(-c3ccccc3)c(-c3nnnn3C(c3ccccc3)(c3ccccc3)c3ccccc3)c2)n1 | 126 to 129

Structure (SMILES) | melting point [°C]
COc1ncnc(-c2cc(N)c(C#N)cc2F)c1Cl | 186 to 189
CC1(C)Oc2ccc(C(N)=S)cc2C(Oc2ccnc(O)c2)C1(C)O (stereo not given) | 142 to 144
Cc1c(N2CCN(C)C(C)C2)c(F)cc2c(=O)c(C(=O)O)cn(C3CC3)c12 (stereo not given) | 181 to 183
CC(C)Oc1ccc(C=C(C=O)C(C=O)=Cc2ccc(OC(C)C)cc2)cc1 | 200 to 202
COCCNc1nc2ccccc2n(-c2ccc(Cl)cc2)c1=O | 151 to 152
COc1cc2c(cc1Br)C(C)(C)CCC2(C)C | 77 to 78
N#CC1(c2cccs2)C2CC3CC(C2)CC1C3 (stereo not given) | 108 to 110
CCOC(=O)CCc1cc(-c2ccc(Cl)cc2)n(-c2ccc(OC)cc2)n1 | 80 to 81
O=C1C2=C(CCCC2)C(=O)N1c1ccc(Cl)cc1F | 81 to 82
Cc1nc2c(c(N)c1C(=O)O)c1ccccc1n2C | 230 to 232
NC(=O)c1ccc(OCCCCl)cc1 | 142 to 143
CC(C)(C)Oc1ccc(O)c(C(=O)O)c1 | 282
Cc1c(N2CC3(CC3)[C@](C)(N)C2)ccc2c(=O)c(C(=O)O)cn(C3CC3)c12 | 227 to 230
COc1ccc(C=O)c(Cl)c1Cl | 112 to 113
CCSc1cc(-c2ccc(Cl)cc2Cl)ccc1C#N | 89 to 92
O=C(Nc1cccc(C(F)(F)F)c1)c1cc(-c2ccc(F)cc2F)ccc1O | 202 to 203
O=c1ccc2c(-c3ccc(O)cc3)nccc2[nH]1 | > 300
COC(=O)c1cc(C(C)=O)c(C(F)(F)F)cc1N | 118 to 121
Cc1cc(N)ccc1NCCNC(N)=O | 143
CCCc1c(OCCOc2cccc3c2CCCC3)ccc2c1OC(CCC(=O)O)(CCC(=O)O)CC2=O | 160 to 162
CC(=O)c1cccc2c1OC1(CC1)C2=O | 114 to 115
CNC(=O)Cn1c(Cl)ccc1Cl | 193 to 194
C=C(C1=C(CCC(=O)OC)C(=O)CC1OCc1ccc(Cl)cc1)c1ccccc1 (stereo not given) | 114 to 115
CC(C)c1ccc(-c2csc(-c3cccc(C(=O)O)c3)n2)cc1 | 206 to 208
COc1cc2c(cc1[N+](=O)[O-])C(=O)C1(CC1)O2 | 160 to 163

Structure (SMILES) | melting point [°C]
COc1ccc([N+](=O)[O-])c2c1C(=O)CCC2 | 65 to 71
Clc1cnc(Oc2cccc(Oc3ncc(Cl)cn3)c2)nc1 | 120
Cc1cc(Br)ccc1NC(=O)CC(=O)O | 163 to 165
COC(=O)[C@H]1Cc2ccc(C)cc2C(=O)[C@H](c2ccccc2)S1 (relative stereo) | 136 to 137
N=c1sc2cc(OC(F)(F)F)ccc2n1CCSCc1ccccn1 | 125
O=C(O)c1cccc2c1C(=O)c1ccccc1S2(=O)=O | 269 to 271
N#Cc1ncccc1C(=O)ON=Cc1ccc(Cl)cc1 | 160
Cc1c(C(=O)Nc2ccc(OCC(C)(C)C)c(C#N)c2)cnn1CCO | 98 to 100
CCc1cc(=O)c2c([nH]1)CCCN2C(=O)C(F)(F)F | 271 to 274
NC(=O)[C@H]1[C@H](CS)N(Cc2ccccc2)C(=O)N1Cc1ccccc1 | 119 to 122
CSc1nc(N)c2ncn(COCCO)c2n1 | 174 to 176
COc1cc(C(C)NC(=O)OCC2c3ccccc3-c3ccccc32)c([N+](=O)[O-])cc1OCCCC(=O)O (stereo not given) | 200 to 201
CC(C)(C)OCC(NC(=O)c1ccc2c(Cl)cnc(NC(=N)N)c2c1)C(=O)OC(C)(C)C (racemic) | 215 to 219
COc1ccc(S(=O)(=O)C2(C(=O)NO)CCN(Cc3ccc(OCCN4CCCCC4)cc3)CC2)cc1 | 114
COc1ccc2[nH]c(C(=O)c3ccccc3)c(NC(C)=O)c2c1OC | 118 to 120
COC(=O)Cc1ccc(OCC(C)NCC(O)c2cccc(F)c2)cc1 (stereo not given) | 52
CC(C)c1nc2cc3c(cc2[nH]1)NC(=O)C3(C)C | 282 to 284
CC1CCN(CCNc2nn3cnnc3c3c2CCCC3)CC1 | 180 to 181
CCOC(=O)[C@H](Cc1ccc(OS(=O)(=O)C(F)(F)F)cc1)NC(=O)OC(C)(C)C | 47 to 49
CCCCc1c(/C=C/C(=O)Oc2ccc([N+](=O)[O-])cc2)ccc2c(OC)cccc12 | 115 to 116
COCOc1ccc(-c2ncc3ccc(-c4csc(CN5CCCCC5)c4)nc3n2)cc1 | > 268
Cc1cc(C#N)cc(C(=O)NC(C)C)c1NC(=O)c1cc(Br)nn1-c1ccccc1Cl | 145 to 149
CS(=O)(=O)Nc1ccc(CC(=O)O)cc1 | 145 to 147
CC(C)C1(C)N=C2c3nc4occc4cc3C(=O)N2C1=O (stereo not given) | 193 to 205
COc1ccc(F)cc1N1CCN(CCCN2Cc3cc(Cl)c(S(N)(=O)=O)cc3C2=O)CC1 | 158 to 163

Structure (SMILES) | melting point [°C]
O=C(C=Cc1ccc2c(c1)OCO2)c1cccc(OCCCCCBr)c1 | 87 to 88
CCOC(=O)C1=C2NCCN2C(C)=C(C(=O)OC(C)C)C1c1cccc([N+](=O)[O-])c1 (stereo not given) | 136
CCOC(=O)Cc1ccc(OCCCN2C(=O)c3ccccc3C2=O)c(OC)c1 | 70 to 72
O=C(Nc1ccc2c(c1)C=CC2)C(F)(F)F | 132
C=CCc1cc2c(c(CC=C)c1O)NC(=O)CO2 | 114 to 115
CCCCN(CCCC)CCCNC(=O)c1ccc2oc3ccc(C(=O)NCCCN(CCCC)CCCC)cc3c(=O)c2c1 | 89 to 92
CCn1ncc(C(=O)c2cc(C)c3c(c2C)C(=O)C(C)(C)CS3(=O)=O)c1O | 160 to 163
Sc1nc2ccccc2n1CCCN1CCN(C(c2ccccc2)c2ccccc2)CC1 | 182
CC1(C)CN(CC(=O)c2ccccc2)c2cc([N+](=O)[O-])ccc2O1 | 125 to 128
CS(=O)(=O)c1ccc(-c2ccccc2-c2ccc(C(F)(F)F)cc2)cc1 | 173 to 174
COC(=O)CCc1cc(C)c(O)c(C)c1 | 70 to 83
CC(=O)SC[C@H]1CCCCCC[C@H](C(=O)N2C[C@H](O)C[C@H]2C(=O)OCc2ccccc2)NC1=O | 145
Cc1ccc([N+](=O)[O-])c(C=O)c1C | 66 to 68
Cc1ccc(C(F)(F)F)c2sc(Sc3ccc4c(c3)CCC3N(C)C(=O)CCC43C)nc12 (single isomer, unassigned; (+)) | 50 to 54
COCOc1ccc(Nc2ncccc2NS(=O)(=O)c2ccc(OC)cc2)cc1 | 118 to 119
CCCc1cc(C(=O)OC)ccc1OCC(=O)CNc1cnn(C(C)C)c(=O)c1Cl | 133
CCCCCCCCC=CCCCCCCCC(=O)NCCCSc1ccncc1 | 50 to 50.5
CCn1ncc2c(NCc3cccc(O)c3)c3ccccc3nc21 | > 240
Cc1ccc(S(=O)(=O)Oc2c(Cl)cc(C3=NNC(=O)CC3)cc2Cl)cc1 | 208 to 209
Cc1cccc2c1C(=O)N(C)Cc1c(I)ncn1-2 | 106 to 108
CC1(C)CC(C)(C)CC(CCCC(=O)O)(NC(=O)CCl)C1 | 140 to 141
O=C(NCO)C(Nc1ccccc1[N+](=O)[O-])c1c(Cl)cccc1Cl (stereo not given) | 175
CC(=O)Oc1c(C)ccc2c1NC(O)C1CCCN1C2=O (stereo not given) | 142 to 145
Cc1cccc(Oc2cccc(Oc3ccc4c(c3)OCO4)c2C(=O)O)c1 | 169 to 172
O=c1nc(Nc2ccc(Cl)cc2)sc2ncccc12 | 278 to 279
